Laboratory results taken from patent publication US10537563B2, “Methods for treating ocular disease using inhibitors of CSF-1R” (NOVARTIS AG, priority 2016, dated 2020).

Key:
retinal F4/80+ cells = assay: Cellular infiltration assay in laser CNV model, retinal F4/80+ macrophages; assay type: in vivo, mouse
Description: (§1) In one experiment, Compound (Ia) or vehicle was dosed orally at 30, 100 or 200 mg/kg starting about 1 hour before laser and continued administration daily until the day before tissue harvest.
(§2) In a second experiment, mice were dosed daily with 50 mg/kg of Compound (Ia) and with i.p. injections of a mouse anti-VEGF antibody at a dose of 0.3 mg/kg at day 0, 2 and 4. Other groups of mice in the experiment were dosed with monotherapy of Compound (Ia) or the anti-VEGF antibody at higher doses.
(§3) Cellular infiltration into the retina, the PEC or the CNV lesion was assessed after laser application. Eyes were fixed with 4% Paraformaldehyde for ˜90 minutes. After fixation, whole eyes were dissected into the retina and PEC. […]
(§4) Iba1+ cells in the PEC peripheral to the CNV lesion were counted using a different semi-automatic MatLab code. […] The operator is then presented with masked, randomized images and allowed the functionality to remove miscellaneous fluorescence (false positive) and add missed cells (false negative) to the analysis. Confluent microglia cells and CNV lesions were excluded from the quantification analysis. In a study, each assessed condition consisted of 10 eyes from 5 mice and would typically yield 10 data points. […] F4/80+ cells in the retina were counted using a similar semi-automatic MatLab code and followed the same procedure as above. […]

VEGF = assay: Interaction with VEGF versus CSF-1 receptor signaling; settings: at concentrations where the signaling of the CSF-1 receptor is strongly or completely inhibited
subretinal Iba1+ cells = assay: Cellular infiltration assay in laser CNV model, subretinal Iba1+ microglia; assay type: in vivo, mouse
Description: as §1, §2, §3, §4

[1] = tested on: choroidal neovascularization; assay: Laser-induced choroidal neovascularization model, CNV area; assay type: in vivo, mouse; settings: oral daily, 30, 100 or 200 mg/kg, dose dependent; tissues harvested day 7
Description: To investigate the effects of CSF-1R inhibition on ocular angiogenesis and inflammation, Compound (Ia) was assessed in a rodent model of laser-induced choroidal neovascularization (methods below) for effect on blood vessel growth and cellular infiltration after a laser injury. Compound (Ia) was assessed either as a monotherapy or in combination with a suboptimal dose of a VEGF antibody.
as §1, §2
Mouse pupils were dilated with one drop (˜40 μL) of 1% cyclopentolate. Just before anesthesia, pupil dilation was maximized with an additional drop of phenylephrine (usually 10% but occasionally 2.5% depending upon availability). […]
Analysis of neovascularization was completed on tissues harvested 7 days after laser photocoagulation. […] CNV area was quantified using a semi-automated analysis program (Axiovision software version 4.5, Carl Zeiss Microscopy) that outlined the fluorescent blood vessels. […]

[2] = tested on: macrophages in areas around the ciliary body; assay: Macrophages around the ciliary body in CX3CR1-GFP reporter mice; assay type: in vivo, mouse; settings: salt of Compound (Ia), oral 200 mg/kg daily for 14 days
Description: To investigate the effects of CSF-1R inhibition on inflammation, Compound (Ia) was assessed in CX3CR1-GFP reporter mice (which report on macrophage and microglia). The presence of macrophages in areas around the ciliary body in the front of the eye (but not in the cornea) was examined and confirmed by anti-GFP immunohistochemistry staining (see panels (a) and (b) in FIG. 4). The arrow-indicated dots are the positive stained macrophage cells).
In this experiment, mice was treated with a salt of Compound (Ia) orally at 200 mg/kg daily for 14 days and immediately examined for the presence of macrophages (see panels (c) and (d) in FIG. 4).

SMILES | reduction in retinal F4/80+ cells (macrophages) (retinal F4/80+ cells; 200 mg/kg oral) | macrophages in the retina (retinal F4/80+ cells; 50 and 200 mg/kg) | interaction with VEGF (VEGF) | reduction in subretinal Iba1+ cells (microglia) (subretinal Iba1+ cells; 200 mg/kg oral) | microglia in the subretinal space (subretinal Iba1+ cells; 50 and 200 mg/kg) | reduction in CNV area compared to vehicle [1] [%] | macrophages in areas around the ciliary body, day 14 ([2]; day 14) | macrophages in areas around the ciliary body, day 21 ([2]; day 21) | macrophages in areas around the ciliary body, day 44 ([2]; day 44)
CNC(=O)c1cc(Oc2ccc3nc(N[C@@H]4CCCC[C@H]4O)sc3c2)ccn1 [Compound (Ia), 4-((2-(((1R,2R)-2-hydroxycyclohexyl)amino)benzo[d]thiazol-6-yl)oxy)-N-methylpicolinamide] | 83-84% | significantly reduced | not to interact strongly | 66-99% | significantly reduced | 75 | depleted | started to return | almost back to steady state
CNC(=O)c1cc(Oc2ccc3nc(N[C@H]4CCCC[C@@H]4O)sc3c2)ccn1 [Compound (Ib), 4-((2-(((1S,2S)-2-hydroxycyclohexyl)amino)benzo[d]thiazol-6-yl)oxy)-N-methylpicolinamide] | – | – | not to interact strongly | – | – | – | – | – | –
